Reference: paper PMC3210175, “8-Modified-2′-Deoxyadenosine Analogues Induce Delayed Polymerization Arrest during HIV-1 Reverse Transcription” (PLoS ONE, 2011)
“Also recorded” adds a separate entry of the source. Like-named read-outs stand apart in the source and are kept apart here.

Key:
[1] = tested on: HIV-1 LAI in CEM-SS cells; experiment: HIV-1 inhibition in cell culture (RT activity in cell culture supernatants); assay type: cell-based; conditions: mean ± SD, four independent experiments
Protocol: (§1) We thus addressed the antiviral activity of our nucleoside analogues in cell culture. All the synthesized nucleoside analogues (2a–g, 3, 7, 8 and 9) were tested for their ability to reduce HIV-1 LAI in CEM-SS cells. Viral replication was monitored by measuring the RT activity in the cell culture supernatants, while compound's cytotoxicity on uninfected cells was assessed using an MTT assay.
(§2) The activity of the nucleoside analogues 2a–g, 3, 7, 8 and 9 on HIV-1 replication was determined by measuring the RT activity associated with virus particles released from CEM-SS cells infected with HIV-1 Lai. The 50% cytotoxic concentration (CC50) was evaluated in parallel to the 50% inhibitory concentration (IC50)[37].

[2] = Cytotoxicity on uninfected cells, MTT assay; assay type: cell-based; conditions: human, uninfected CEM-SS cells, mean ± SD, four independent experiments
Protocol: as §1, §2

HIV-1 RT [3] = biological target: T1, HIV-1 RT (Human immunodeficiency virus type 1 group M subtype B, UniProt P04585, E1065Q); experiment: (−) strand "n+6" DNA synthesis assay (ddATP instead of dATP; DCT-modified 18- or 19-mer primer on 1–311 HIV-1 MAL RNA template); assay type: biochemical; conditions: for Inhibition of (−) strand DNA synthesis (DCT in the primer), DCT at 3′-end 18 mer: "n+6" DNA synthesis assay, analogue incorporated at 3′ end of 18-mer DNA primer; for Delayed chain termination (accumulation of n+3 products): DCT at penultimate position of 19-mer primer, both 10 and 30 nM RT
T1 construct: helix αH in the thumb domain of the p66 subunit of HIV-1 RT; made in house
Text: (§3) Viral RNA, comprising the first 311 nucleotides of the HIV-1 genomic RNA (Mal isolate) was in vitro transcribed and purified as previously described. 18-, 19 and 31-mer DNA oligodeoxynucleotides containing the modified 2′-dA analogues respectively at 3′ end, at the penultimate position of 3′ end and at a distance of 12 nucleotides from their 5′ end were chemically synthesized and purified as described above (Figure 5). Unmodified and modified 18- and 19-mer primers were labelled at their 5′ end with [γ-^32]ATP using phage T4 polynucleotide kinase and purified on 8% denaturing polyacrylamide gels. RNase H (−) reverse transcriptase bearing the E478Q mutation that abolishes RNase H activity (RT^EQ) was expressed and purified according to a method adapted from.
(§4) Primer/template (P/T) complexes, at a final concentration of 300 nM, were formed by incubating the primer with a 3 fold excess of either 1–311 viral RNA or modified 31-mer DNA oligonucleotide in water for 2 min at 90°C, cooling on ice for 2 min and incubating for 20 min at 50°C in 100 mM NaCl.
Ten nM P/T (with the 311 vRNA as template) were pre-incubated with 10 or 30 nM of RT at 37°C for 4 min. Reactions were initiated by the addition of 50 µM of each of the four dNTPs and stopped at various times with equal amounts of buffer containing formamide. The same procedure was used for synthesis of “+6” DNA except that ddATP was substituted for dATP. Reaction products were denatured for 2 min at 90°C prior to separation on an 8% polyacrylamide denaturing gel and quantified using a Fuji FLA-5100 analyser and the Image Gauge program.

HIV-1 RT [4] = biological target: T1, HIV-1 RT; experiment: (+) strand DNA synthesis assay (DCT in 31-mer DNA template, 18-mer DNA primer); assay type: biochemical; conditions: analogue in 31-mer DNA template; RT 10 or 30 nM
Text: as §3, §4
Thirty one-mer DNA templates, containing or not a modified 2′-deoxyadenosine were hybridized to an 18-mer DNA primer (Figure 5) and subsequent DNA synthesis and analysis of the reaction products were performed as described above.

CEM-SS cells = experiment: Cytotoxicity on uninfected cells, MTT assay; assay type: cell-based; conditions: mean ± SD, four independent experiments
Protocol: as §1, §2

HIV-1 RT [5] = biological target: T1, HIV-1 RT; experiment: (−) strand strong-stop DNA synthesis assay (DCT-modified 19-mer DNA primer on 1–311 HIV-1 MAL RNA template); assay type: biochemical; conditions: 10 nM RT, full-length product
Text: as §3, §4
Ten nM P/T (with the 311 vRNA as template) were pre-incubated with 10 or 30 nM of RT at 37°C for 4 min. […] Reaction products were denatured for 2 min at 90°C prior to separation on an 8% polyacrylamide denaturing gel and quantified using a Fuji FLA-5100 analyser and the Image Gauge program.

HIV-1 RT [6] = biological target: T1, HIV-1 RT; experiment: DNA-directed DNA synthesis with modified 19-mer primer on 41-mer DNA template (Figure S2); assay type: biochemical; conditions: 8-MeS-dAMP at penultimate position of 19-mer primer, 10 or 90 nM RT
Text: Supplementary file pone.0027456.s002.docx: Figure S2 Comparative effect of 8-MeS-dA on (−) and (+) strand DNA synthesis. A. Templates and primers used for the study. The template is either 1–311 HIV-1 MAL RNA, for which part of the sequence is shown, or a 41-mer DNA oligonucleotide. The primer is a 19- mer DNA strictly complementary to the central part of the template. X corresponds to either dAMP or 8-MeS-dAMP inserted at the penultimate position of the primer. “n” corresponds to the position of the modified nucleotide. B. Time course of in vitro DNA synthesis using 10 nM of primer/template complexes preincubated with either 10 or 90 nM of HIV-1 RT. Polymerization was initiated by the addition of 20 µM of dTTP, dGTP and dCTP as well as 50 µM of ddATP for the RNA-directed synthesis or 20 µM of dATP, dTTP, dCTP and 50 µM of ddGTP for the DNA directed synthesis. Reactions were stopped after 15, 60 and 120 min. (+6) and (+7) refer to the 6th and 7th nucleotides to be added with respect to the position of the modified nucleotide analogue. (DOCX) Click here for additional data file.

[7] = Human immunodeficiency virus 1, CEM-SS, read-out: EC50

Row | Structure (SMILES) | EC50 [1, 7] [µM] | CC50 [2] [µM] | Delayed chain termination (accumulation of n+3 products) (HIV-1 RT [3]) | Effect on primer extension pattern / enzyme pausing in (+) strand DNA synthesis (HIV-1 RT [4]) | further results
1 | CN(C)c1nc2c(N)ncnc2n1[C@H]1C[C@H](O)[C@@H](CO)O1 [2a, 8-Dimethylamino-2'-deoxyadenosine] | > 100 | > 100 | – | – | –
2 | CCN(C)c1nc2c(N)ncnc2n1[C@H]1C[C@H](O)[C@@H](CO)O1 [2b, 8-Ethylmethylamino-2'-deoxyadenosine] | > 100 | > 100 | clearly induced a delayed chain termination | enzyme pausing is obvious at positions n+1 and mainly n+2 | Inhibition of (−) strand DNA synthesis (DCT in the primer), DCT at 3′-end 18 mer (HIV-1 RT [3]; 10 nM RT): immediate chain terminator; also recorded: termination; Inhibition of (−) strand DNA synthesis (DCT in the primer), DCT at 3′-end 18 mer (HIV-1 RT [3]; 30 nM RT): immediate chain terminator; also recorded: termination
3 | CCN(CC)c1nc2c(N)ncnc2n1[C@H]1C[C@H](O)[C@@H](CO)O1 [2c, 8-Diethylamino-2'-deoxyadenosine] | > 100 | > 100 | – | – | –
4 | Nc1ncnc2c1nc(N1CCCC1)n2[C@H]1C[C@H](O)[C@@H](CO)O1 [2d, 8-Pyrrolidin-2'-deoxyadenosine] | > 100 | > 100 | – | – | –
5 | Nc1ncnc2c1nc(N1CCCCC1)n2[C@H]1C[C@H](O)[C@@H](CO)O1 [2e, 8-Piperidin-2'-deoxyadenosine] | > 100 | > 100 | – | – | –
6 | CC(C)Nc1nc2c(N)ncnc2n1[C@H]1C[C@H](O)[C@@H](CO)O1 [2f, 8-iPropyl-amino-2'-deoxyadenosine] | 14 | 81 | clearly induced a delayed chain termination | enzyme pausing is obvious at positions n+1 and mainly n+2 | EC50 ([1]; listed as 8-iPr-N-dA): moderate anti-HIV-1 activity; EC50 ([1]; read-out: EC50): 14.2 ± 1.9 µM; CC50 (CEM-SS cells): 81.3 ± 6.1 µM
7 | CC(C)CNc1nc2c(N)ncnc2n1[C@H]1C[C@H](O)[C@@H](CO)O1 [2g, 8-iButyl-amino-2'-deoxyadenosine] | > 100 | > 100 | did not impact | does not affect this pattern | Inhibition of (−) strand DNA synthesis (DCT in the primer), DCT at penultimate position 19 mer (HIV-1 RT [5]): same pattern as the unmodified primer
8 | CSc1nc2c(N)ncnc2n1[C@H]1C[C@H](O)[C@@H](CO)O1 [compound 3, 8-Methylthio-2′-deoxyadenosine] | > 100 | > 100 | clearly induced a delayed chain termination | enzyme pausing is obvious at positions n+1 and mainly n+2 | Delayed chain termination with DNA rather than RNA as template (HIV-1 RT [6]): did not act as a delayed chain terminator
9 | NC(=O)c1nc2c(N)ncnc2n1[C@H]1C[C@H](O)[C@@H](CO)O1 [compound 7, 8-Carbamoyl-2′-deoxyadenosine] | > 100 | > 100 | – | – | –
10 | C=Cc1nc2c(N)ncnc2n1[C@H]1C[C@H](O)[C@@H](CO)O1 [compound 8, 8-Vinyl-2′-deoxyadenosine] | > 100 | > 100 | – | enzyme pausing is obvious at positions n+1 and mainly n+2 | –
11 | CCc1nc2c(N)ncnc2n1[C@H]1C[C@H](O)[C@@H](CO)O1 [compound 9, 8-Ethyl-2′-deoxyadenosine] | > 100 | > 100 | – | enzyme pausing is obvious at positions n+1 and mainly n+2 | –
